Data reported in patent EP2276483B1, “SOLID FORMS COMPRISING (+)-2-[1-(3-ETHOXY-4-METHOXYPHENYL)-2-METHYLSULFONYLETHYL]-4-ACETYLAMINOISOINDOLINE-1,3-DIONE, COMPOSITIONS THEREOF, AND USES THEREOF” (CELGENE CORPORATION, priority 2008, dated 2009).

Tests used:
cAMP = experiment: PGE2-induced cAMP elevation in human neutrophils; format: cell-based; details: Neutrophil
Description: Prostaglandin E2 (PGE2) binds to prostanoid receptors on monocytes, T cells and other leukocytes and consequently elevates intracellular cAMP levels, resulting in inhibition of cellular responses. The combination of PGE2 and a PDE4 inhibitor synergistically elevates cAMP levels in these cell types, and the elevation of cAMP in PBMC caused by PDE4 inhibitors in the presence of PGE2 is proportional to the inhibitory activity of that PDE4 inhibitor. Intracellular cAMP was measured in human PBMC as follows. PBMC were isolated as described above and plated in 96-well plates at 1 x 10^6 cells per well in RPMI-1640. The cells were pre-treated with compounds at 100, 10, 1, 0.1, 0.01, and 0 µM in a final concentration of 2% DMSO in duplicate at 37°C in a humidified incubator at 5% CO2 for one hour. The cells were then stimulated with PGE2 (10µM) (Sigma) for 1h. The cells were lysed with HCl, 0.1 N final concentration to inhibit phosphodiesterase activity and the plates were frozen at -20°C. The cAMP produced was measured using cAMP (low pH) Immunoassay kit (R&D Systems).
Elevation of cAMP in human neutrophils was measured as follows. PBMC were removed from source leukocytes (Sera-Tec Biologicals) by centrifugation on Ficoll-Paque Plus (Amersham Pharmacia). […]

TNF-α = experiment: IL-1β-induced TNF-α production from human PBMC; format: cell-based; details: 50 ng/ml recombinant human IL-1β
Description: During the course of inflammatory diseases, TNF-α production is often stimulated by the cytokine 1L-1β, rather than by bacterially derived LPS. Compounds were tested for the ability to inhibit IL-1β-induced TNF-α production from human PBMC as described above for LPS-induced TNF-α production, except that the PBMC were isolated from source leukocyte units (Sera-Tec Biologicals, North Brunswick, NJ, USA) by centrifugation on Ficoll-Paque Plus (Amersham Pharmacia, Piscataway, NJ, USA), plated in 96-well tissue culture plates at 3 x 10^5 cells/well in RPMI-1640 medium (BioWhittaker, Walkersville, Maryland, USA) containing 10% heat-inactivated fetal bovine serum (Hyclone), 2 mM L-glutamine, 100 U/ml penicillin, and […] (complete medium), pretreated with compounds at 10, 2, 0.4, 0.08, 0.016, 0.0032, 0.00064, and 0 µM in duplicate at a final DMSO concentration of 0.1% at 37 °C in a humidified incubator at 5% CO2 for one hour, then stimulated with 50 ng/ml recombinant human IL-1β (Endogen) for 18 hours.

CD11b = experiment: fMLF-induced CD11b expression on neutrophils; format: cell-based; details: Neutrophil; human neutrophils; 30 nM fMLF
Description: CD18/CD11b (Mac-1) expression on neutrophils was measured as previously described (Derian et al., 1995, J. Immunol., 154:308-3 17) with the following modifications. Neutrophils were isolated as described above, then resuspended in complete medium at 1x10^6 cells/ml, pretreated with compounds at 10, 1, 0.1, 0.01, and 0 µM in duplicate at a final DMSO concentration of 0.1% for 10 minutes at 37°C 5%CO2. Cells were then stimulated with 30 nM fMLF for 30 minutes and then chilled to 4°C. Cells were treated with rabbit IgG (Jackson ImmunoResearch Labs, West Grove, PA, USA) (10 µg/1x10^6 cells) to block Fc receptors, stained with CD18-FITC and CD11b-PE (Becton Dickinson), and analyzed by flow cytometry on a FACSCalibur. CD18/CD11b expression (mean fluorescence) in the absence of stimulation was subtracted from all samples to obtain inhibition curves and calculate IC50 values.

[1] = target: T1, PDE5 from human platelets (Homo sapiens, UniProt O76074); experiment: PDE5 enzyme assay; format: biochemical
T1 construct: PDE5 from human platelets; from tissue; host or cells: human platelets

bovine PDE1 = experiment: PDE1 enzyme assay; format: biochemical

Q: Which EC50 (cAMP) does the source give for `CCOc1cc(C(CS(C)(=O)=O)N2C(=O)c3cccc(NC(C)=O)c3C2=O)ccc1OC` (single isomer, unassigned; (+)) [Compound A, (+)-2-[1-(3-ethoxy-4-methoxyphenyl)-2-methylsulfonylethyl]-4-acetylaminoisoindoline-1,3-dione] here?
A: 4.57 µM

Q: What about the IC50 (TNF-α) of the same compound?
A: 0.083 µM

Q: What about the IC50 (CD11b) of the same compound?
A: 0.074 µM

Q: What about the “PDE Specificity Ratio PDE4/PDE5” value ([1]; from above data) of the same compound?
A: >30000 fold

Q: And the inhibition at 10 µM ([1]; read-out: PDE5 (% inhib at 10 µM))?
A: 3%

Q: And the “PDE1 (% inhib at 10 µM)” value (bovine PDE1; 10 µM)?
A: 23%

Q: And the “PDE Specificity Ratio PDE4/PDE1” value (bovine PDE1; from above data)?
A: >500 fold
